Values after ≈ are worked out from the molar mass of the structure shown.
Experiments:
[1] = tested on: T1, Cryptococcus neoformans (H99); assay: microbe, parasite or virus in culture; set-up: CLSI M27-A3 broth microdilution in RPMI 1640 at 37 C, growth inhibition of C. neoformans (MIC)
T1 construct: H99
Experimental: In vitro antifungal activities of FK506, FK520, and analogs were assessed in RPMI 1640 (Sigma-Aldrich) for all strains tested. MICs/minimum effective concentrations (MECs) for each drug were measured using modified Clinical and Laboratory Standards Institute (CLSI) M38-A2 and M27-A3 standard in vitro antifungal susceptibility protocols. Broth microdilution assays for MIC/MEC assessment were performed as described previously ([33]). All antifungal assays with C. neoformans were performed at 37°C. Antifungal susceptibility testing for C. albicans was performed in the presence of a uniform 1 μg/mL concentration of fluconazole to sensitize the organism to calcineurin inhibition. MICs/minimum effective concentrations (MECs) were determined for each of the novel analogs against the three major human fungal pathogens, A. fumigatus, C. neoformans, and C. albicans. […] Thus, analogs of FK506 and FK520 can tolerate up to 100-fold reduction in antifungal activity and still be considered for in vivo testing. For C. neoformans, MICs were the most uniform and ranged from 0.2 to 2 μg/mL, which is between 4- and 40-fold reduced for antifungal activity. C. albicans MICs ranged from 0.2 to 6.25 μg/mL, which is between 10- and 312.5-fold reduced for activity. Despite being one of the most difficult to treat fungal infections, all six analogs were active against A. fumigatus with MECs ranging from 1 to 2 μg/mL or a 62.5- to 125-fold reduction in activity.

FKBP12 = biological target: T2, FKBP12 (Candida albicans, UniProt C4YFI3+C4YS24+P28870); assay: BLI, compound-mediated ternary complex formation, […] compound; format: binding
T2 construct: gene RBP1; biotinylated (Avi-tagged) FKBP12; with CnA-CnB-calmodulin
T2 sequence (P28870 whole entry): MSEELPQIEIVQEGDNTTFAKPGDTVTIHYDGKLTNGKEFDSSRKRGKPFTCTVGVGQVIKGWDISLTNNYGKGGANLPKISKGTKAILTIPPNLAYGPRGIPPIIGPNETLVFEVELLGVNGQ
T2 sequence (C4YFI3 54-445): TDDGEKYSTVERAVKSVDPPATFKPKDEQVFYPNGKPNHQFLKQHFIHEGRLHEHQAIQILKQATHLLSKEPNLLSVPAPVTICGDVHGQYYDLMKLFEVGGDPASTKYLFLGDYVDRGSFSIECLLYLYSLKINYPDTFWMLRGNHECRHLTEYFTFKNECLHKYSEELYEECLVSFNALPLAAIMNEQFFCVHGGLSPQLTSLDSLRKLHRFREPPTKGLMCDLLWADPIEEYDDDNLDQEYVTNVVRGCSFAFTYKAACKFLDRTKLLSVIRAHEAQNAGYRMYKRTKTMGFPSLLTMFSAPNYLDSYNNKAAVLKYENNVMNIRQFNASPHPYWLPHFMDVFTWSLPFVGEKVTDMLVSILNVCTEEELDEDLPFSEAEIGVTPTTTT
T2 sequence (C4YS24 1-173): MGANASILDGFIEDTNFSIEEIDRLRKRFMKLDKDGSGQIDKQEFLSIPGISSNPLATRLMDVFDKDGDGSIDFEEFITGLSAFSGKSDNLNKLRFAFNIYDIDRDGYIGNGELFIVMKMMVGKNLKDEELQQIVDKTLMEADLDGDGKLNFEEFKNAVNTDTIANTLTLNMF
T2 sequence (P23286 whole entry partner): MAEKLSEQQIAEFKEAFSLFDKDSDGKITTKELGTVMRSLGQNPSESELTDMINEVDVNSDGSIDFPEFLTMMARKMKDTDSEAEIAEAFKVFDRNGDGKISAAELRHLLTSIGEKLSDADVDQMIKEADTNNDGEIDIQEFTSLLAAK

Compound	MIC ([1]; Cryptococcus neoformans, read-out: MIC (μg/mL) against: / Cryptococcus neoformans (H99)^a)	BLI, compound-mediated ternary complex formation, 10 μM compound (FKBP12)	MIC (μg/mL) against: / Cryptococcus neoformans (H99)^a ([1]; inhibitor)
C=CC[C@@H]1/C=C(\C)C[C@H](C)C[C@H](OC)[C@H]2O[C@@](O)(C(=O)C(=O)N3CCCC[C@H]3C(=O)O[C@H](/C(C)=C/[C@@H]3CC[C@@H](O)[C@H](OC)C3)[C@H](C)[C@@H](O)CC1=O)[C@H](C)C[C@@H]2OC [FK506]	0.05 µg/mL (≈ 0.0622 µM)	along with compounds FK506, APX879, FK520, JH-FK-02, and JH-FK-05	
CC[C@@H]1/C=C(\C)C[C@H](C)C[C@H](OC)[C@H]2O[C@@](O)(C(=O)C(=O)N3CCCC[C@H]3C(=O)O[C@H](/C(C)=C/[C@@H]3CC[C@@H](O)[C@H](OC)C3)[C@H](C)[C@@H](O)CC1=O)[C@H](C)C[C@@H]2OC [FK520]		along with compounds FK506, APX879, FK520, JH-FK-02, and JH-FK-05	0.05 µg/mL (≈ 0.0631 µM)

— article PMC9239059, “Structure-Guided Synthesis of FK506 and FK520 Analogs with Increased Selectivity Exhibit In Vivo Therapeutic Efficacy against Cryptococcus” (mBio, 2022)
